From patent US20200323888A1, “INHIBITORS” (VESTLANDETS INNOVASJONSSELSKAP AS, priority 2017, published 2020)

Experiments:
[1] = target: Naa40 (Homo sapiens, UniProt Q86UY6); assay: Nt-acetylation inhibitor assay (DTNB), Naa40; format: biochemical; settings: calculated from IC50 with Cheng-Prusoff equation
Protocol: (§1) The IC50 values for these compounds were tested as described in Foyn H, et al. (2013) “Design, Synthesis, and Kinetic Characterization of Protein N-Terminal Acetyltransferase Inhibitors”. ACS Chem Biol 8:1121-1127; and Foyn H, et al. (2017) “DTNB-Based quantification of in vitro enzymatic N-terminal acetyltransferase activity”, Methods Mol. Biol. 1574:9-15. Briefly, a colorimetric acetylation assay, 5,5′-dithiobis-(2-nitrobenzoic acid) (DTNB) assay was used to measure the catalytic activity of NATs after incubation with NAT inhibitors. […] Therefore, NTB- was quantified by measuring the absorbance at 412 nm and indirectly measures peptide Nt-acetylation. […] In order to measure CoA production, 2 mM DTNB (dissolved in 100 mM sodium phosphate dibasic pH 6.8 and 10 mM EDTA) was added to the quenched reaction and the absorbance at 412 nm was measured with a spectrophotometer (Epoc). Background absorbance (determined in negative controls) was subtracted from the absorbance determined in each individual reaction. Thiophenolate production was quantified assuming ε=13.7×103 M−1 cm−1. […] A similar Nt-acetylation reaction was performed as previously described and the enzymatic activity was quenched with a final concentration of 1% TFA and analyzed by HPLC (Evjenth R, Van Damme P, Gevaert K, Arnesen T (2013) HPLC-based Quantification of in vitro N-terminal Acetylation. Methods Mol Biol 981:95-102.). […]

[2] = target: T1, Naa10 (Homo sapiens, UniProt P41227); assay: Nt-acetylation inhibitor assay (DTNB), Naa10; format: biochemical; settings: Naa10; calculated from IC50 with Cheng-Prusoff equation
T1 sequence (P41227 1-235): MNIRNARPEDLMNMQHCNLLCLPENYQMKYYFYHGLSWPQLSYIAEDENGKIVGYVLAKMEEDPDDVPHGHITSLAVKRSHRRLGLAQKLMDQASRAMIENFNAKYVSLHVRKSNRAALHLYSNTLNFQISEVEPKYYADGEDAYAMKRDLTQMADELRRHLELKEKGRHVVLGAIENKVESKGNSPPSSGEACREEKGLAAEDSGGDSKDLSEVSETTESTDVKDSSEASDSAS
Protocol: as §1

[3] = target: T2, NatA (Homo sapiens, UniProt P41227); assay: Nt-acetylation inhibitor assay, immunoprecipitated NatA complex, HPLC quantification; format: biochemical
T2 construct: endogenous in cells
T2 sequence (P41227 1-235): T1 sequence (P41227 1-235)
T2 sequence (Q9BXJ9 1-866 partner): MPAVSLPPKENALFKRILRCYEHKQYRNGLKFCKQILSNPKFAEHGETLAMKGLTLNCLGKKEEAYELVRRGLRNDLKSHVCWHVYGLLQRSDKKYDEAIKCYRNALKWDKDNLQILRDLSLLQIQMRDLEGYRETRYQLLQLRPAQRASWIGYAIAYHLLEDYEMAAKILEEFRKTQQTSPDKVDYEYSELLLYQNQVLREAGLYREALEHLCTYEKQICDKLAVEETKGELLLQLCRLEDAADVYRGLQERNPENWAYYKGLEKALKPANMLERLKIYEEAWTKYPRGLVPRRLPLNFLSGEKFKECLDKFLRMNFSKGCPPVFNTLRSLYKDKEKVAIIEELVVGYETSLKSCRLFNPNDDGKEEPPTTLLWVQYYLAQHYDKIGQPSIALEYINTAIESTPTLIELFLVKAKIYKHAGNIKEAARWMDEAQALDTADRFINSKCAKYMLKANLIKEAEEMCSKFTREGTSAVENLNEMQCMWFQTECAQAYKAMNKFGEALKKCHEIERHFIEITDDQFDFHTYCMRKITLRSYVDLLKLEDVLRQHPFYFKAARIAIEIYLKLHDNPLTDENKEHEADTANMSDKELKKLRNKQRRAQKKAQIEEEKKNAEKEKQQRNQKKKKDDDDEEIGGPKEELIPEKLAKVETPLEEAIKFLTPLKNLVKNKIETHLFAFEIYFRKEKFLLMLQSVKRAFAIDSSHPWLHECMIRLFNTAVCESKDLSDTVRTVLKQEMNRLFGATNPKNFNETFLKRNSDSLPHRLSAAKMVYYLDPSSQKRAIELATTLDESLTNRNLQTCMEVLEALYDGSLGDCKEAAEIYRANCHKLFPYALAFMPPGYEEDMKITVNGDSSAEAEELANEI
Protocol: The IC50 values for these compounds were tested as described in Foyn H, et al. (2013) “Design, Synthesis, and Kinetic Characterization of Protein N-Terminal Acetyltransferase Inhibitors”. ACS Chem Biol 8:1121-1127; and Foyn H, et al. (2017) “DTNB-Based quantification of in vitro enzymatic N-terminal acetyltransferase activity”, Methods Mol. Biol. 1574:9-15. Briefly, a colorimetric acetylation assay, 5,5′-dithiobis-(2-nitrobenzoic acid) (DTNB) assay was used to measure the catalytic activity of NATs after incubation with NAT inhibitors. In the DTNB assay, thiols present in the enzymatic product, CoA, cleaves DTNB and produces 2-nitro-5-thiobenzoate (NTB-), which absorbs light with a wavelength of 412 nm. NTB- forms in a 1:1 molar ratio to the thiol groups present in the sample. Therefore, NTB- was quantified by measuring the absorbance at 412 nm and indirectly measures peptide Nt-acetylation. Recombinant purified NAT enzyme was mixed with different substrate peptides (300 uM, custom-made) and Ac-CoA (300 uM) in acetylation buffer (50 mM Tris/HEPES pH 8.5-7.4, 100 mM NaCl, 10% glycerol and 0.2 mM EDTA) and with inhibitor concentration (0-500 uM). After 30 min-60 min incubation at 37° C., the enzyme activity was quenched with quenching buffer (3.2 M guanidinium-HCl, 100 mM sodium phosphate dibasic pH 6.8). Triplicates were run for all positive samples, while negative controls were duplicated. As a negative control, reactions without enzyme were incubated at 37° C. before the reaction was quenched and added enzyme. In order to measure CoA production, 2 mM DTNB (dissolved in 100 mM sodium phosphate dibasic pH 6.8 and 10 mM EDTA) was added to the quenched reaction and the absorbance at 412 nm was measured with a spectrophotometer (Epoc). Background absorbance (determined in negative controls) was subtracted from the absorbance determined in each individual reaction. Thiophenolate production was quantified assuming ε=13.7×103 M−1 cm−1. […] A similar Nt-acetylation reaction was performed as previously described and the enzymatic activity was quenched with a final concentration of 1% TFA and analyzed by HPLC (Evjenth R, Van Damme P, Gevaert K, Arnesen T (2013) HPLC-based Quantification of in vitro N-terminal Acetylation. Methods Mol Biol 981:95-102.).
In order to ensure selectivity towards NatA, the CoA-Ac-SSNIeP (SEQ ID NO: 4) was tested against other NATs. Using the Cheng-Prusoff equation for competitive inhibitors, the dissociation constant, Ki, was calculated from IC50 values and [S]/Km ratios for all the NATs.

[4] = tested on: zebrafish embryos; assay: Phenotype after injection into zebrafish embryos; format: in vivo; settings: injected into zebrafish embryos; compared with reference inhibitor
Text: A norleucine (Nle) residue was therefore tried in place of methionine in order to try to circumvent the synthesis problem.

[5] = target: T3, Naa30 (Homo sapiens, UniProt Q147X3); assay: Nt-acetylation inhibitor assay (DTNB), Naa30; format: biochemical; settings: calculated from IC50 with Cheng-Prusoff equation
T3 sequence (Q147X3 1-362): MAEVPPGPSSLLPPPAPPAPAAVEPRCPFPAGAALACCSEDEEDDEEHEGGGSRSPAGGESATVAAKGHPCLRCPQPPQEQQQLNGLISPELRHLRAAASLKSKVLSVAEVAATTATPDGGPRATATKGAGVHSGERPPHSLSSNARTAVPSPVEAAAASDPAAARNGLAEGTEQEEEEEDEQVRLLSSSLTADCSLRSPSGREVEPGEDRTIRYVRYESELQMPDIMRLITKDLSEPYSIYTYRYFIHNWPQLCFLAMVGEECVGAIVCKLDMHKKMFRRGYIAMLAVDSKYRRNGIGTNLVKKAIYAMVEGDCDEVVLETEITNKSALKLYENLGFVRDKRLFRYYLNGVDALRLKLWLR
Protocol: as §1

[6] = target: Naa60 (Homo sapiens, UniProt Q9H7X0); assay: Nt-acetylation inhibitor assay (DTNB), Naa60; format: biochemical; settings: calculated from IC50 with Cheng-Prusoff equation
Sequence of Naa60 (Q9H7X0 whole entry, looked up): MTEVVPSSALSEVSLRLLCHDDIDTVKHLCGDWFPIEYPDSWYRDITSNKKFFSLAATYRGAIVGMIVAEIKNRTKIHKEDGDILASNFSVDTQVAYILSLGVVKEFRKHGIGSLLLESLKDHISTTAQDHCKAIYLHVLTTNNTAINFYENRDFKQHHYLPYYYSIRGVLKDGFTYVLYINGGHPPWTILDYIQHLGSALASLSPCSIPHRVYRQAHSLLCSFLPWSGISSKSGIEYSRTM
Protocol: as §1

[7] = target: NatB (Homo sapiens, UniProt P61599); assay: Nt-acetylation inhibitor assay, immunoprecipitated NatB complex, HPLC quantification; format: biochemical; parameters: endogenous in cells; settings: calculated from IC50 with Cheng-Prusoff equation
Sequence of NatB (P61599 whole entry): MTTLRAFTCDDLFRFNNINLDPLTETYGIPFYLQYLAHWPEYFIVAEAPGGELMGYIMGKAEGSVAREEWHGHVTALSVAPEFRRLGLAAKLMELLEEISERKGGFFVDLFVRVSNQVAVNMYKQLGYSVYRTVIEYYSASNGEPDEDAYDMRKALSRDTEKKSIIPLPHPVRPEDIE
Sequence of NatB (Q14CX7 whole entry partner): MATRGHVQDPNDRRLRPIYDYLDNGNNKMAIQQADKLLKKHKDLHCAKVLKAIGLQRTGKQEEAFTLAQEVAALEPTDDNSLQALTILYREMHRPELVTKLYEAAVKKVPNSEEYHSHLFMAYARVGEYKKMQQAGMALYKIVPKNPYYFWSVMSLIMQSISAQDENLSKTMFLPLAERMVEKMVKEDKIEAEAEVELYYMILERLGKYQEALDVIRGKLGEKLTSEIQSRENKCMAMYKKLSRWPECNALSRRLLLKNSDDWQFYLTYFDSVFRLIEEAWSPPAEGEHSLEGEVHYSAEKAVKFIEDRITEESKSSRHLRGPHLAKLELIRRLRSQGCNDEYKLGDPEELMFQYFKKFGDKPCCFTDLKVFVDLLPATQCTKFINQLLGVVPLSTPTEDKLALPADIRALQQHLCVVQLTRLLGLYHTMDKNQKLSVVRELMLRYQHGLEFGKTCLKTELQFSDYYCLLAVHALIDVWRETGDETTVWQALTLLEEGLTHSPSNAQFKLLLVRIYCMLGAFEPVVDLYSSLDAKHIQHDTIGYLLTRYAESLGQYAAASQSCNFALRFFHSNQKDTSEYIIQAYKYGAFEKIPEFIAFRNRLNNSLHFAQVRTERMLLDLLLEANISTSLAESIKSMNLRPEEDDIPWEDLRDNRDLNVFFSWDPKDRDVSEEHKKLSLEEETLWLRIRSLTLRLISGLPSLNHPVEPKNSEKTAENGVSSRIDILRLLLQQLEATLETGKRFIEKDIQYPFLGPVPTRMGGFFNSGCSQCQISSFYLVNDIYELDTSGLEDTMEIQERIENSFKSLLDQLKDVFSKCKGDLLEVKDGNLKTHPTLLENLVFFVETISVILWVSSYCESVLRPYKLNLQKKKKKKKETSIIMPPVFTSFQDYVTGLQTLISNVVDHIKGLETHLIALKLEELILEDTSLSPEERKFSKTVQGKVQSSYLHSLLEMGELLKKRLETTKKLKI
Protocol: as §1

[8] = target: T4, Naa50 (Homo sapiens, UniProt Q9GZZ1); assay: Nt-acetylation inhibitor assay (DTNB), Naa50; format: biochemical; settings: calculated from IC50 with Cheng-Prusoff equation
T4 sequence (Q9GZZ1 1-169): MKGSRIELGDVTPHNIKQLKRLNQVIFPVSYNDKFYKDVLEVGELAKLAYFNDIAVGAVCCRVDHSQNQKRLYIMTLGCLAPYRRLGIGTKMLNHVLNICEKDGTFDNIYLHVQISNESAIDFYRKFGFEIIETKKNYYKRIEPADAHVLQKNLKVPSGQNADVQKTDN
Protocol: as §1

CCCC[C@H](NC(=O)[C@H](CO)NC(=O)[C@H](CO)NC(=O)CSCCNC(=O)CCNC(=O)C(O)C(C)(C)COP(=O)(O)OP(=O)(O)OCC1OC(n2cnc3c(N)ncnc32)C(O)C1OP(=O)(O)O)C(=O)N1CCC[C@H]1C(N)=O (stereo partly shown) [CoA-Ac-SS(Nle)P]
Ki [1]: 41.9 ± 6.4 µM
Ki [2]: 98.9 µM
Ki ([3]; NatA, calculated from IC50 with Cheng-Prusoff equation): 0.143 ± 0.03 µM
IC50 ([3]; inhibitors tested against NatA, all compounds with C-terminal amide): 1.46 ± 0.29 µM
more potent towards NatA than all the other NATs tested ([3]; selectivity from Ki values of Table 2): at least 100 fold
phenotype in zebrafish [4]: same phenotype in zebrafish as SSMP
Ki [5]: 132 µM
Ki [6]: 3.1 ± 0.8 µM
Ki [7]: 41.6 ± 51.2 µM
Ki [8]: 17.7 ± 7.4 µM
